The test deals with CD2F1 mice, L1210 leukemia ip, survival T/C. Description: NCI In Vivo Anticancer Drug Screen. Data for tumor model L1210 Leukemia (intraperitoneal) in CD2F1 (CDF1) mice. The following applies: higher = longer survival. The procedure, abridged: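 Implant tumor; dose compound or vehicle; measure endpoint in both groups; report treated divided by control.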
[1] abbreviates: endpoint: mean survival time, dose: 25.0 mg/kg/injection, schedule: Q01DX009 (ip), vehicle: Klucel (hydroxypropylcellulose) (HPC).
The mark [2] stands for this setting: endpoint: mean survival time, dose: 50.0 mg/kg/injection, schedule: Q01DX009 (ip), vehicle: Klucel (hydroxypropylcellulose) (HPC).
Setting [3] is: endpoint: mean survival time, dose: 100.0 mg/kg/injection, schedule: Q01DX009 (ip), vehicle: Klucel (hydroxypropylcellulose) (HPC).
Where [4] appears, read: endpoint: mean survival time, dose: 200.0 mg/kg/injection, schedule: Q01DX009 (ip), vehicle: Klucel (hydroxypropylcellulose) (HPC).
[5] abbreviates: endpoint: mean survival time, dose: 100.0 mg/kg/injection, schedule: Q01DX009 (ip), vehicle: saline with Tween-80.
Setting [6] is: endpoint: mean survival time, dose: 200.0 mg/kg/injection, schedule: Q01DX009 (ip), vehicle: saline with Tween-80.
The mark [7] stands for this setting: endpoint: mean survival time, dose: 400.0 mg/kg/injection, schedule: Q01DX009 (ip), vehicle: saline with Tween-80.
[8] abbreviates: endpoint: mean survival time, dose: 100.0 mg/kg/injection, schedule: Q04DX003 (ip), vehicle: saline with Tween-80.
Setting [9] is: endpoint: mean survival time, dose: 200.0 mg/kg/injection, schedule: Q04DX003 (ip), vehicle: saline with Tween-80.
Where [10] appears, read: endpoint: mean survival time, dose: 400.0 mg/kg/injection, schedule: Q04DX003 (ip), vehicle: saline with Tween-80.

Values joined by “and” are separate entries in the source; they are usually repeats but may differ in a detail not shown here. Equal entries are not always repeated. Inconclusive results and toxic doses are left out. Non-standard residues stand in square brackets, D forms with d. Residues, ends and D or L forms follow the SMILES beside them. ξ: configuration not given here. *: point of attachment. ξW = NC(Cc1c[nH]c2ccccc12)C(=O)O; Cbz = O=C(OCc1ccccc1)*

Regarding `CC(=O)Nc1ccc(CN2CC(C)N(N)C(C)C2)cc1` (stereo not drawn), the T/C reads like this: (endpoint: mean survival time, dose: 12.5 mg/kg/injection, schedule: Q01DX009 (ip), vehicle: Klucel (hydroxypropylcellulose) (HPC)) 103 % of control; under setting [1], 98 % of control; under setting [2], 98 % of control; under setting [3], 101 % of control; under setting [4], 103 % of control; (endpoint: mean survival time, dose: 400.0 mg/kg/injection, schedule: Q01DX009 (ip), vehicle: Klucel (hydroxypropylcellulose) (HPC)) 89 % of control.

As to `CCOC(=O)CCCCSCCCCC(=O)OCC`, the T/C (endpoint: mean survival time, dose: 100.0 mg/kg/injection, schedule: Q01DX001 (ip), vehicle: saline with Tween-80) is 100 % of control; the T/C (endpoint: mean survival time, dose: 200.0 mg/kg/injection, schedule: Q01DX001 (ip), vehicle: saline with Tween-80) is 105 % of control; the T/C (endpoint: mean survival time, dose: 400.0 mg/kg/injection, schedule: Q01DX001 (ip), vehicle: saline with Tween-80) was 101 % of control.

As for `CCCCCCCCCCCCCCCCCCSC1=CC(=O)C(OC)=C(OC)C1=O`, the T/C runs as follows: (endpoint: mean survival time, dose: 3.13 mg/kg/injection, schedule: Q01DX009 (ip), vehicle: Klucel (hydroxypropylcellulose) (HPC)) 90 % of control; (endpoint: mean survival time, dose: 6.25 mg/kg/injection, schedule: Q01DX009 (ip), vehicle: Klucel (hydroxypropylcellulose) (HPC)) 88 % of control; under setting [2], 94 % of control.

Turning to `CCOC(=O)C(=CN1CCCCC1)C(=O)OCC`, the T/C by setting is: under setting [5], 92 % of control; under setting [6], 94 % of control; under setting [7], 96 % of control.

As to `O=S(=O)(Cc1ccccc1)Cc1ccccc1`, the T/C is 101 % of control under setting [5]; 103 % of control under setting [8]; 98 % of control under setting [6]; 103 % of control under setting [9]; 96 % of control under setting [7]; 102 % of control under setting [10].

Consider `NS(=O)(=O)c1cccc([As](=O)(O)O)c1`, for which the T/C by setting is: (endpoint: mean survival time, dose: 50.0 mg/kg/injection, schedule: Q04DX003 (ip), vehicle: saline) 105 % of control; (endpoint: mean survival time, dose: 100.0 mg/kg/injection, schedule: Q04DX003 (ip), vehicle: saline) 95 % of control; (endpoint: mean survival time, dose: 200.0 mg/kg/injection, schedule: Q04DX003 (ip), vehicle: saline) 94 % of control.

As to `Cc1ccc(C2=NNc3n[nH]c(=S)n3N2)cc1`, the T/C runs as follows: under setting [5], 101 % of control; under setting [8], 95 % of control; under setting [6], 96 % of control; under setting [9], 93 % of control; under setting [10], 91 % of control.

As for `O=C(Nc1ncnc2c1[nH]c(=O)n2C1OC(CO)C2OC21)c1ccccc1` (stereo not drawn), the T/C (endpoint: mean survival time, dose: 12.5 mg/kg/injection, schedule: Q01DX005 (ip), vehicle: distilled water + Tween-80) is 92 % of control; the T/C (endpoint: mean survival time, dose: 25.0 mg/kg/injection, schedule: Q01DX005 (ip), vehicle: distilled water + Tween-80) is 100 % of control; the T/C (endpoint: mean survival time, dose: 50.0 mg/kg/injection, schedule: Q01DX005 (ip), vehicle: distilled water + Tween-80) was 95 % of control; the T/C (endpoint: mean survival time, dose: 100.0 mg/kg/injection, schedule: Q01DX005 (ip), vehicle: distilled water + Tween-80) was 90 % of control; the T/C (endpoint: mean survival time, dose: 200.0 mg/kg/injection, schedule: Q01DX005 (ip), vehicle: distilled water + Tween-80) was 93 % of control.

With `Cn1c(=O)cc(O)c2ccccc21`, the T/C is, setting by setting: under setting [8], 101 % of control; under setting [9], 97 % of control; under setting [10], 97 % of control.

For the molecule `OC(c1ccccc1)c1ccc2c(c1)CCC2` (stereo not drawn), the T/C is 102 % of control under setting [8], 98 % of control under setting [9] and 94 % of control under setting [10].

Consider `O=C(Nc1cccc(Cl)c1)NC1CCC(CC2CCCCC2)CC1` (stereo not drawn), for which the T/C runs as follows: under setting [8], 95 % of control; under setting [9], 95 % of control; under setting [10], 100 % of control.

Consider `CC(C)(C)c1ccc(OS(=O)(=O)c2cccc([N+](=O)[O-])c2)cc1`, for which the T/C by setting is: under setting [5], 86 % of control; under setting [6], 102 % of control; under setting [7], 94 % of control.

Regarding `CC(=O)NO`, the T/C is, setting by setting: (endpoint: median survival time, dose: 25.0 mg/kg/injection, schedule: Q03HX024 (ip), vehicle: water) 104 % of control; (endpoint: median survival time, dose: 50.0 mg/kg/injection, schedule: Q01DX009 (ip), vehicle: water) 101 % of control; (endpoint: median survival time, dose: 50.0 mg/kg/injection, schedule: Q03HX024 (ip), vehicle: water) 105 % of control; (endpoint: median survival time, dose: 62.5 mg/kg/injection, schedule: Q01DX009 (ip), vehicle: saline) 111 % of control; (endpoint: median survival time, dose: 62.5 mg/kg/injection, schedule: Q01DX009 (ip), vehicle: water) 99 % of control; (endpoint: median survival time, dose: 100.0 mg/kg/injection, schedule: Q01DX009 (ip), vehicle: water) 105 % of control. The T/C (endpoint: median survival time, dose: 100.0 mg/kg/injection, schedule: Q03HX024 (ip), vehicle: water) was 114 % of control; the T/C (endpoint: median survival time, dose: 125.0 mg/kg/injection, schedule: Q01DX009 (ip), vehicle: saline) was 111 % of control; the T/C (endpoint: median survival time, dose: 125.0 mg/kg/injection, schedule: Q01DX009 (ip), vehicle: water) is 101 % of control; the T/C (endpoint: median survival time, dose: 250.0 mg/kg/injection, schedule: Q01DX009 (ip), vehicle: saline) is 118 % of control; the T/C (endpoint: median survival time, dose: 250.0 mg/kg/injection, schedule: Q01DX009 (ip), vehicle: water) was 111 % of control; the T/C (endpoint: median survival time, dose: 400.0 mg/kg/injection, schedule: Q01DX009 (ip), vehicle: water) is 152 % of control. Further, the T/C is 241 % of control (endpoint: median survival time, dose: 400.0 mg/kg/injection, schedule: Q03HX024 (ip), vehicle: water); 152 % of control (endpoint: median survival time, dose: 500.0 mg/kg/injection, schedule: Q01DX009 (ip), vehicle: saline); 173 % of control and 183 % of control (endpoint: median survival time, dose: 800.0 mg/kg/injection, schedule: Q01DX009 (ip), vehicle: water); 172 % of control (endpoint: median survival time, dose: 1000.0 mg/kg/injection, schedule: Q01DX009 (ip), vehicle: saline).

Take `CC(=O)NCC(=O)[O][Sn]([c]1ccc(C)cc1)([c]1ccc(C)cc1)[c]1ccc(C)cc1`: the T/C was 97 % of control (endpoint: mean survival time, dose: 0.19 mg/kg/injection, schedule: Q01DX009 (ip), vehicle: saline); 105 % of control (endpoint: mean survival time, dose: 0.39 mg/kg/injection, schedule: Q01DX009 (ip), vehicle: saline); 103 % of control and 111 % of control (endpoint: mean survival time, dose: 0.78 mg/kg/injection, schedule: Q01DX009 (ip), vehicle: saline); 100 % of control (endpoint: mean survival time, dose: 1.56 mg/kg/injection, schedule: Q01DX009 (ip), vehicle: saline); 91 % of control (endpoint: mean survival time, dose: 3.12 mg/kg/injection, schedule: Q01DX009 (ip), vehicle: saline).

On to `CCOC(=O)C(CCC(C)C)C(C)=O` (stereo not drawn), for which the T/C by setting is: (endpoint: mean survival time, dose: 100.0 mg/kg/injection, schedule: Q01DX005 (ip), vehicle: saline with Tween-80) 93 % of control; (endpoint: mean survival time, dose: 200.0 mg/kg/injection, schedule: Q01DX005 (ip), vehicle: saline with Tween-80) 103 % of control; (endpoint: mean survival time, dose: 400.0 mg/kg/injection, schedule: Q01DX005 (ip), vehicle: saline with Tween-80) 106 % of control.

With `NC(=O)CNC(=O)C(Cc1c[nH]c2ccccc12)NC(=O)OCc1ccccc1` (stereo not drawn) (Cbz-[ξW]-Gly-NH2), the T/C by setting is: (endpoint: mean survival time, dose: 75.0 mg/kg/injection, schedule: Q04DX003 (ip), vehicle: saline) 93 % of control; (endpoint: mean survival time, dose: 150.0 mg/kg/injection, schedule: Q04DX003 (ip), vehicle: saline) 97 % of control; (endpoint: mean survival time, dose: 300.0 mg/kg/injection, schedule: Q04DX003 (ip), vehicle: saline) 98 % of control.

In the case of `CC1=CSC2=NC(=O)CCN12`, the T/C (endpoint: mean survival time, dose: 100.0 mg/kg/injection, schedule: Q01DX001 (ip), vehicle: saline) was 93 % of control; the T/C (endpoint: mean survival time, dose: 200.0 mg/kg/injection, schedule: Q01DX001 (ip), vehicle: saline) is 100 % of control; the T/C (endpoint: mean survival time, dose: 400.0 mg/kg/injection, schedule: Q01DX001 (ip), vehicle: saline) is 90 % of control.

Regarding `CCCCCCCN=NC`, the T/C is, setting by setting: (endpoint: mean survival time, dose: 75.0 mg/kg/injection, schedule: Q01DX001 (ip), vehicle: other) 96 % of control; (endpoint: mean survival time, dose: 150.0 mg/kg/injection, schedule: Q01DX001 (ip), vehicle: other) 100 % of control; (endpoint: mean survival time, dose: 300.0 mg/kg/injection, schedule: Q01DX001 (ip), vehicle: other) 93 % of control.

With `O=[N+]([O-])C=C(S)S`, the T/C runs as follows: under setting [1], 111 % of control; under setting [2], 98 % of control; under setting [3], 93 % of control; under setting [4], 90 % of control.

These data come from PubChem BioAssay AID256 (DTP/NCI, 2004).
